Measured values taken from patent US8642654B2, “Hydroxybutyrate ester and medical use thereof” (ISIS Innovation Limited, priority 2011, dated 2014).
“Also recorded” adds a separate entry of the source. Marks after values point to notes of the source that are not given here.

Experiments:
[1] = 28-day study, isonitrogenous and isocaloric diets (Example 4); format: in vivo, Wistar rats; settings: for total amount of weight gained compared with CHOD and NHD groups: 28-day study; for feed intake during days 22 to 29: KD; for body weight on day 28: KD group
From the text: In a 28-day study, male and female Wistar rats weighing approximately 350 g were randomized to one of three diet groups (n=10 males and 10 females/group) and administered either a carbohydrate diet (CHOD), a normal human diet (NHD), or a ketone diet (KD). The diets were isonitrogenous and isocaloric, differing only in their relative amounts of carbohydrate, fat, and ketones. In the KD, the ketone used was the ketone monoester (3R)-hydroxybutyl (3R)-hydroxybutyrate diet (i.e. the compound of the invention). In the KD, approximately ⅓ of the energy was derived from the ketone ester, while in the NHD and CHOD, ⅓ of the energy was derived from palmitate and starch, respectively.

[2] = test system: melanocyte-stimulating hormone receptor 4 (MC4R); test: Neuropeptide levels in sectioned rat brain by antibody techniques: MC4R; format: in vivo; settings: rat hypothalamus, 14 days ketone diet
Experimental: (§1) In a 14-day study, Wistar rats weighing about 250 g were randomized to one of three diet groups (n=6 rats/group) and administered either a carbohydrate (“starch”) diet, a normal human (“fat”) diet or a ketone ester diet, in which the ketone ester used was the ketone monoester (3R)-hydroxybutyl (3R)-hydroxybutyrate diet (i.e. the compound of the invention). The three diets were eaten in pair fed meals for 3 hours per day. The composition of the diets expressed in terms of g/100 g are summarised in Table 5 and the compositions expressed in terms of % of calories are summarised in Table 6. After 14 days of feeding with the fat, carbohydrate or ketone ester diet, the levels of various neuropeptides known to be associated with decreased food intake and decreased appetite (“anorexigenic” peptides) were surveyed in the paraventricular nucleus (PVN) area of the hypothalamus and in the hippocampus of the rat brain. The neuropeptide levels were measured using standard antibody techniques performed on sectioned brains of the rats. The results are shown in the micrographs of FIGS. 3 to 9. The peptides measured were Brain Derived Neurotropic Factor (BDNF), melanocyte-stimulating hormone receptor 4 (MC4R), and Cocaine-and-Amphetamine Responsive Transcript (CART). […]

[3] = In vivo testing, meal-fed diets (Example 3); settings: meal-fed rats, n=8 per group
From the text: Example 2 was repeated using the same foods as shown in Table 1 but where the rats were meal-fed. […] The daily body weight (in grams per rat per day) was plotted against time for rats in each of the three diet groups over the first six days of the test. One-way analysis of variance with Tukey-Kramer multiple comparison test was used (n=8 per group, **p<0.001). […] The body weight of rats in the group fed the carbohydrate diet remained high throughout the feeding process. […] The daily food intake (in grams per rat per day) was plotted against time for rats in each of the three diet groups over the first seven days of the test. Again, one-way analysis of variance with Tukey-Kramer multiple comparison test was used (n=8 per group, ***p<0.001).

[4] = test system: Cocaine-and-Amphetamine Responsive Transcript (CART); test: Neuropeptide levels in sectioned rat brain by antibody techniques: CART; format: in vivo; settings: 14 days ketone diet
Experimental: as §1

[5] = In vivo testing, calorie-controlled diets, 66 days (Example 2); parameters: species or system Wistar rats
Experimental: Young adult male Wistar rats (starting weight 70 g) (Harlan UK Limited) (n=50) were housed at approximately 20° C. on a 12h:12h reverse light:dark photoperiod. Rats were fed standard laboratory chow (Chow) (SDS, Essex, UK) prior to the starting the experimental diets: (a) normal “Western” diet (Western) in which 34% of kilocalories came from added palmitate (n=20), (b) high-carbohydrate (CHO) in which 70% of kilocalories came from added corn starch (n=10) or (c) (3R)-hydroxybutyl (3R)-hydroxybutyrate diet (monoester) in which 30% of kilocalories came from (3R)-hydroxybutyl (3R)-hydroxybutyrate (n=20). The macronutrient compositions of the three diets are shown below. All diets contained the same energy in kCal/g but had different macronutrients. Rats were individually housed one week prior to the start of the experiments, so that they were accustomed to living in a solitary environment by the time the study started. They consumed standard laboratory chow ad libitum until they were placed on their experimental diet. Rats fed the Western and carbohydrate diets were fed the same number of calories as those consumed by the monoester-fed rats the previous day. All rats were fed for 66 days. After this period the rat body, heart and fat pad weights were determined.

[6] = 14-day pair fed meal diets: food consumption and weight gain (Example 5); format: in vivo, Wistar rats; settings: rats, 14-day study
Experimental: (§2) In a 14-day study, Wistar rats weighing about 250 g were randomized to one of three diet groups (n=6 rats/group) and administered either a carbohydrate (“starch”) diet, a normal human (“fat”) diet or a ketone ester diet, in which the ketone ester used was the ketone monoester (3R)-hydroxybutyl (3R)-hydroxybutyrate diet (i.e. the compound of the invention). The three diets were eaten in pair fed meals for 3 hours per day. The composition of the diets expressed in terms of g/100 g are summarised in Table 5 and the compositions expressed in terms of % of calories are summarised in Table 6.

[7] = Blood levels of (3R)-hydroxybutyrate after oral ingestion; format: in vivo; settings: ingested orally
[8] = test system: Brain Derived Neurotropic Factor (BDNF); test: Neuropeptide levels in sectioned rat brain by antibody techniques: BDNF; format: in vivo; settings: rat hypothalamus, ketone diet
Experimental: as §1

[9] = test system: free nucleotide ratios and concentrations in the brain; test: Calculated free nucleotide ratios and concentrations in freeze blown brain after 14 days of diet; format: in vivo, Wistar rats
Experimental: as §2
After the rats were fed on the diets for 14 days, the ratios of free nucleotide and the free nucleotide concentrations were determined. Measurements were performed on the freeze blown brain and metabolite ratios of the rats calculated as previously described (Veech, R. L. et al, J. Biol. Chem. 254:6538-47, 1979). The values in Table 8 are given as means±SEM (n=6 to 8). Cytosolic pH was assumed to be 7.2.

[10] = test system: Krebs cycle and CoA intermediates in the brain; test: Brain Krebs cycle and CoA intermediates after 14 days of diet; format: in vivo, Wistar rats; settings: rat brain
Experimental: In a 14-day study, Wistar rats weighing about 250 g were randomized to one of three diet groups (n=6 rats/group) and administered either a carbohydrate (“starch”) diet, a normal human (“fat”) diet or a ketone ester diet, in which the ketone ester used was the ketone monoester (3R)-hydroxybutyl (3R)-hydroxybutyrate diet (i.e. the compound of the invention). The three diets were eaten in pair fed meals for 3 hours per day. The composition of the diets expressed in terms of g/100 g are summarised in Table 5 and the compositions expressed in terms of % of calories are summarised in Table 6. After eating the 3 diets in pair fed meals for 3 hours per day for 14 days, the levels of various Krebs cycle and CoA intermediates in the brain were measured enzymatically and by mass spectrometry using standard techniques. […] Malonyl CoA is a metabolite known to be associated with decreased food intake; it is known to decrease appetite (Wolfgang, M. J. and Lane, M. D. (2006) J. Biol. Chem. 281, 37265-37269). […] The values in Table 7 are means, in μmoles/g wet weight, ±SEM with n=6 to 8. CoA's are given in nmol/g wet weight.

[11] = rats, monoester diet, 66 days, n = 20
[12] = rat brain, 14 days ketone ester diet, mean ± SEM
[13] = rat brain, 14 days ketone ester diet, mean ± SEM, p < 0.05 vs starch and vs fat
[14] = 14 days ketone ester diet, mean ± SEM

blood levels of (3R)-hydroxybutyrate [7]: measurably raised
Compound: C[C@@H](O)CCOC(=O)C[C@@H](C)O [Monoester, (3R)-hydroxybutyl (3R)-hydroxybutyrate]
total amount of weight gained compared with CHOD and NHD groups ([1]; female rats): significantly less
feed intake during days 22 to 29 ([1]; female rats): 175 ± 12 g
body weight on day 28 ([1]; female rats): 240 ± 13 g
total amount of weight gained compared with CHOD and NHD groups ([1]; male rats): significantly less
feed intake during days 22 to 29 ([1]; male rats): 239 ± 17 g
body weight on day 28 ([1]; male rats): 390 ± 26 g
MC4R positive cell bodies in pm and mpd regions of the PVN, compared to fat diet (FIGS. 4 and 5) [2]: significantly higher density; also recorded: more MC4R activity; also recorded: Significantly greater numbers; also recorded: significantly denser area
daily food intake compared with carbohydrate and Western diets (FIG. 2) ([3]; first seven days): ate less food; also recorded: consistently reduced
daily body weight compared with carbohydrate and Western diets (FIG. 1) ([3]; first six days): Significantly reduced; also recorded: lost more weight
CART-positive cell bodies in VMH, ARC and ME areas of the hypothalamus (FIG. 7) [4]: highest numbers
CART positive cell bodies in the PVN, compared to fat and carbohydrate diets (FIGS. 6, 8, 9) ([4]; rat hypothalamus): highest level; also recorded: more CART; also recorded: significantly greater number; also recorded: highest density
fat pad weight compared with Western or carbohydrate diet ([5]; end of the 66-day test): significantly lower
fat to body weight compared with other diets ([5]; end of the 66-day test): significantly lower
Final body weight ([5]; rats, monoester diet (30% of kilocalories), calorie-controlled, 66 days, n = 20): 213 ± 5 g
Heart to body weight [5, 11]: 0.29 ± 0.01%
Heart weight [5, 11]: 0.64 ± 0.02 g
Epididymal fat ([5]; rats, monoester diet, 66 days, n = 20, *P < 0.05): 1.48 ± 0.2* g
Epididymal fat to body weight ([5]; rats, monoester diet, 66 days, n = 20, *P < 0.05, in % (unit assumed)): 0.69 ± 0.1*
food consumption compared with starch or fat diets [6]: consume less food
weight gain compared with starch or fat diets [6]: gain less weight
BDNF-positive cell bodies in the paraventricular nucleus (PVN), compared to fat and carbohydrate diets (FIG. 3) [8]: significantly more; also recorded: more BDNF; also recorded: significantly greater number
brain phosphorylation potential compared with carbohydrate and fat diets ([9]; after 14 days of diet): significantly higher
ΔG′ of ATP hydrolysis compared with carbohydrate and fat diets ([9]; after 14 days of diet): significantly higher
EhCoQ/CoQH2 from Fum/Succ [9, 12]: 28.9 ± 0.6 mV
Free [ADP] cytosol from PCr/Cr [9, 12]: 0.027 ± 0.001 µM/g
Free [AMP] cytosol from Kmyokinase [9, 12]: 0.0004 ± 0.00003 µM/g
Free [Mg^2+] from [Cit]/[Isocit] [9, 12]: 1.5 ± 0.13 mM
Free [NAD^+]/[NADH] mitochochondria from αKGxNH4^+/Glut [9, 12]: 0.80 ± 0.17
Free [NAD^+]/[NADPH] cytosol from αKGxCO2/IsoCit [9, 12]: 0.026 ± 0.003
Free [NAD^+]/[NADH] cytosol from Lactate/Pyruvate ([9]; rat brain, 14 days ketone ester diet, mean ± SEM, cytosolic pH assumed 7.2): 357 ± 27
Phosphorylation Potential from Kg + g (Eqn 1) [9, 13]: 38,100 ± 3,390 ^a, b M^−1
ΔG′ ATP [9, 13]: −59.6 ± 0.2 ^a, b kJ/mol
malonyl CoA levels in the brain compared with other diets ([10]; 14 days): higher
Acetyl CoA [10, 14]: 6.43 ± 0.53 µM
Fumarate [10, 14]: 0.0745 ± 0.0058 μmoles/g wet weight
Isocitrate [10, 14]: 0.0093 ± 0.008 μmoles/g wet weight
L-Malate [10, 14]: 0.181 ± 0.013 μmoles/g wet weight
Succinate [10, 14]: 0.0864 ± 0.0033 μmoles/g wet weight
Succinyl CoA [10, 14]: 0.910 ± 0.207 µM
α-ketoglutarate [10, 14]: 0.140 ± 0.008 μmoles/g wet weight
Calc Oxaloacetate ([10]; 14 days ketone ester diet, mean ± SEM, calculated): 0.0026 ± 0.0004 μmoles/g wet weight
Citrate ([10]; 14 days ketone ester diet, mean ± SEM, n=6 to 8): 0.222 ± 0.010 μmoles/g wet weight
Malonyl CoA ([10]; 14 days ketone ester diet, mean ± SEM, p < 0.05 between ketone ester and starch): 1.26 ± 0.13 ^a μM
